From PMC8080530, “Glucocorticoid receptor Thr524 phosphorylation by MINK1 induces interactions with 14-3-3 protein regulators” (The Journal of Biological Chemistry, 2021)
Like-named read-outs stand apart in the source and are kept apart here. Non-standard residues stand in square brackets, D forms with d. Residues, ends and D or L forms follow the SMILES beside them. pT = C[C@@H](OP(=O)(O)O)[C@H](N)C(=O)O; pS = N[C@@H](COP(=O)(O)O)C(=O)O

Biological target: T1, 14-3-3ζ (Homo sapiens, UniProt P63104)
T1 construct: Full-length expression and purification of 14-3-3; made in house; host or cells: E. coli BL21 (DE3)STAR
T1 sequence (P63104 1-245): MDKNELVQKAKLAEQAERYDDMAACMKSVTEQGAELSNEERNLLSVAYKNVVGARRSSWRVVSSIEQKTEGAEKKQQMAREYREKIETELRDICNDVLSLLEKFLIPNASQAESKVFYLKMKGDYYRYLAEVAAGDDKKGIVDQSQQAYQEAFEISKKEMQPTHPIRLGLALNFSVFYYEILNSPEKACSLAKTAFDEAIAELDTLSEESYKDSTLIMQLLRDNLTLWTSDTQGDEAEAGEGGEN
Test: FP assay with GR phosphorylated peptides and 14-3-3ζ
Format: binding
Protocol: After 30-min incubation at RT, the plates were read on a plate reader PHERAstar (BMG LABTECH GmbH) for FP signal using […] and standard excitation (485 nm) and emission (520 nm). Measurements were performed as triplicates. Binding data were fit to a standard Hill equation using the software Genedata Screener. The figures were made using the software GraphPad Prism 8. FP data were expressed as millipolarization (mP) units, and the dynamic range (ΔmP) was the difference of the signals from the bound peptide and free peptide. Errors are the standard error of the fit.

[1] = read-out: PKd with 14-3-3ζ (converted)

SMILES | Kd [1] [nM] | Kd (FP, doubly phosphorylated 31-mer peptides, triplicates, read-out: Kd with 14-3-3ζ (values in nM)) [nM]
CC[C@H](C)[C@H](NC(=O)[C@@H](NC(=O)[C@@H](N)CCCCN)[C@@H](C)O)C(=O)N[C@H](C(=O)N[C@@H](C)C(=O)N[C@@H](C)C(=O)N[C@H](C(=O)N[C@@H](CC(C)C)C(=O)N1CCC[C@H]1C(=O)N[C@@H](CCC(N)=O)C(=O)N[C@@H](CC(C)C)C(=O)N[C@H](C(=O)N1CCC[C@H]1C(=O)NCC(=O)NCC(=O)NCC(=O)NCC(=O)NCC(=O)N[C@@H](CCCNC(=N)N)C(=O)N[C@@H](CO)C(=O)N[C@@H](Cc1ccc(O)cc1)C(=O)N[C@@H](CCCNC(=N)N)C(=O)N[C@@H](CCC(N)=O)C(=O)N[C@@H](CO)C(=O)N[C@@H](COP(=O)(O)O)C(=O)N[C@@H](C)C(=O)N[C@@H](CC(N)=O)C(=O)N[C@@H](CC(C)C)C(=O)N[C@@H](CC(C)C)C(=O)N[C@@H](CS)C(=O)N[C@@H](Cc1ccccc1)C(=O)O)[C@@H](C)O)[C@@H](C)OP(=O)(O)O)C(C)C [GR_P522A] (H-KTIVAA[pT]LPQLTPGGGGGRSYRQS[pS]ANLLCF-OH) | 63.1 | 
CC[C@H](C)[C@H](NC(=O)[C@@H](NC(=O)[C@@H](N)CCCCN)[C@@H](C)O)C(=O)N[C@H](C(=O)N1CCC[C@H]1C(=O)N[C@@H](C)C(=O)N[C@H](C(=O)N[C@@H](CC(C)C)C(=O)N[C@@H](C)C(=O)N[C@@H](CCC(N)=O)C(=O)N[C@@H](CC(C)C)C(=O)N[C@H](C(=O)N1CCC[C@H]1C(=O)NCC(=O)NCC(=O)NCC(=O)NCC(=O)NCC(=O)N[C@@H](CCCNC(=N)N)C(=O)N[C@@H](CO)C(=O)N[C@@H](Cc1ccc(O)cc1)C(=O)N[C@@H](CCCNC(=N)N)C(=O)N[C@@H](CCC(N)=O)C(=O)N[C@@H](CO)C(=O)N[C@@H](COP(=O)(O)O)C(=O)N[C@@H](C)C(=O)N[C@@H](CC(N)=O)C(=O)N[C@@H](CC(C)C)C(=O)N[C@@H](CC(C)C)C(=O)N[C@@H](CS)C(=O)N[C@@H](Cc1ccccc1)C(=O)O)[C@@H](C)O)[C@@H](C)OP(=O)(O)O)C(C)C [GR_P526A] (H-KTIVPA[pT]LAQLTPGGGGGRSYRQS[pS]ANLLCF-OH) | 1260 | 
CC[C@H](C)[C@H](NC(=O)[C@@H](NC(=O)[C@@H](N)CCCCN)[C@@H](C)O)C(=O)N[C@H](C(=O)N1CCC[C@H]1C(=O)N[C@@H](C)C(=O)N[C@H](C(=O)N[C@@H](CC(C)C)C(=O)N1CCC[C@H]1C(=O)N[C@@H](CCC(N)=O)C(=O)N[C@@H](CC(C)C)C(=O)N[C@H](C(=O)N[C@@H](C)C(=O)NCC(=O)NCC(=O)NCC(=O)NCC(=O)NCC(=O)N[C@@H](CCCNC(=N)N)C(=O)N[C@@H](CO)C(=O)N[C@@H](Cc1ccc(O)cc1)C(=O)N[C@@H](CCCNC(=N)N)C(=O)N[C@@H](CCC(N)=O)C(=O)N[C@@H](CO)C(=O)N[C@@H](COP(=O)(O)O)C(=O)N[C@@H](C)C(=O)N[C@@H](CC(N)=O)C(=O)N[C@@H](CC(C)C)C(=O)N[C@@H](CC(C)C)C(=O)N[C@@H](CS)C(=O)N[C@@H](Cc1ccccc1)C(=O)O)[C@@H](C)O)[C@@H](C)OP(=O)(O)O)C(C)C [GR_P530A] (H-KTIVPA[pT]LPQLTAGGGGGRSYRQS[pS]ANLLCF-OH) | 31.6 | 
CC[C@H](C)[C@H](NC(=O)[C@@H](NC(=O)[C@@H](N)CCCCN)[C@@H](C)O)C(=O)N[C@H](C(=O)N1CCC[C@H]1C(=O)N[C@@H](C)C(=O)N[C@H](C(=O)N[C@@H](CC(C)C)C(=O)N1CCC[C@H]1C(=O)N[C@@H](C)C(=O)N[C@@H](CC(C)C)C(=O)N[C@H](C(=O)N1CCC[C@H]1C(=O)NCC(=O)NCC(=O)NCC(=O)NCC(=O)NCC(=O)N[C@@H](CCCNC(=N)N)C(=O)N[C@@H](CO)C(=O)N[C@@H](Cc1ccc(O)cc1)C(=O)N[C@@H](CCCNC(=N)N)C(=O)N[C@@H](CCC(N)=O)C(=O)N[C@@H](CO)C(=O)N[C@@H](COP(=O)(O)O)C(=O)N[C@@H](C)C(=O)N[C@@H](CC(N)=O)C(=O)N[C@@H](CC(C)C)C(=O)N[C@@H](CC(C)C)C(=O)N[C@@H](CS)C(=O)N[C@@H](Cc1ccccc1)C(=O)O)[C@@H](C)O)[C@@H](C)OP(=O)(O)O)C(C)C [GR_Q527A] (H-KTIVPA[pT]LPALTPGGGGGRSYRQS[pS]ANLLCF-OH) | 31.6 | 
CC[C@H](C)[C@H](NC(=O)[C@@H](NC(=O)[C@@H](N)CCCCN)[C@@H](C)O)C(=O)N[C@H](C(=O)N1CCC[C@H]1C(=O)N[C@@H](C)C(=O)N[C@H](C(=O)N[C@@H](CC(C)C)C(=O)N1CCC[C@H]1C(=O)N[C@@H](CCC(N)=O)C(=O)N[C@@H](CC(C)C)C(=O)N[C@H](C(=O)N1CCC[C@H]1C(=O)NCC(=O)NCC(=O)NCC(=O)NCC(=O)NCC(=O)N[C@@H](CCCNC(=N)N)C(=O)N[C@@H](CO)C(=O)N[C@@H](Cc1ccc(O)cc1)C(=O)N[C@@H](CCCNC(=N)N)C(=O)N[C@@H](C)C(=O)N[C@@H](CO)C(=O)N[C@@H](COP(=O)(O)O)C(=O)N[C@@H](C)C(=O)N[C@@H](CC(N)=O)C(=O)N[C@@H](CC(C)C)C(=O)N[C@@H](CC(C)C)C(=O)N[C@@H](CS)C(=O)N[C@@H](Cc1ccccc1)C(=O)O)[C@@H](C)O)[C@@H](C)OP(=O)(O)O)C(C)C [GR_Q615A] (H-KTIVPA[pT]LPQLTPGGGGGRSYRAS[pS]ANLLCF-OH) | 39.8 | 
CC[C@H](C)[C@H](NC(=O)[C@@H](NC(=O)[C@@H](N)CCCCN)[C@@H](C)O)C(=O)N[C@H](C(=O)N1CCC[C@H]1C(=O)N[C@@H](C)C(=O)N[C@H](C(=O)N[C@@H](CC(C)C)C(=O)N1CCC[C@H]1C(=O)N[C@@H](CCC(N)=O)C(=O)N[C@@H](CC(C)C)C(=O)N[C@H](C(=O)N1CCC[C@H]1C(=O)NCC(=O)NCC(=O)NCC(=O)NCC(=O)NCC(=O)N[C@@H](C)C(=O)N[C@@H](CO)C(=O)N[C@@H](Cc1ccc(O)cc1)C(=O)N[C@@H](CCCNC(=N)N)C(=O)N[C@@H](CCC(N)=O)C(=O)N[C@@H](CO)C(=O)N[C@@H](COP(=O)(O)O)C(=O)N[C@@H](C)C(=O)N[C@@H](CC(N)=O)C(=O)N[C@@H](CC(C)C)C(=O)N[C@@H](CC(C)C)C(=O)N[C@@H](CS)C(=O)N[C@@H](Cc1ccccc1)C(=O)O)[C@@H](C)O)[C@@H](C)OP(=O)(O)O)C(C)C [GR_R611A] (H-KTIVPA[pT]LPQLTPGGGGGASYRQS[pS]ANLLCF-OH) | 50.1 | 
CC[C@H](C)[C@H](NC(=O)[C@@H](NC(=O)[C@@H](N)CCCCN)[C@@H](C)O)C(=O)N[C@H](C(=O)N1CCC[C@H]1C(=O)N[C@@H](C)C(=O)N[C@H](C(=O)N[C@@H](CC(C)C)C(=O)N1CCC[C@H]1C(=O)N[C@@H](CCC(N)=O)C(=O)N[C@@H](CC(C)C)C(=O)N[C@H](C(=O)N1CCC[C@H]1C(=O)NCC(=O)NCC(=O)NCC(=O)NCC(=O)NCC(=O)N[C@@H](CCCNC(=N)N)C(=O)N[C@@H](CO)C(=O)N[C@@H](Cc1ccc(O)cc1)C(=O)N[C@@H](C)C(=O)N[C@@H](CCC(N)=O)C(=O)N[C@@H](CO)C(=O)N[C@@H](COP(=O)(O)O)C(=O)N[C@@H](C)C(=O)N[C@@H](CC(N)=O)C(=O)N[C@@H](CC(C)C)C(=O)N[C@@H](CC(C)C)C(=O)N[C@@H](CS)C(=O)N[C@@H](Cc1ccccc1)C(=O)O)[C@@H](C)O)[C@@H](C)OP(=O)(O)O)C(C)C [GR_R614A] (H-KTIVPA[pT]LPQLTPGGGGGRSYAQS[pS]ANLLCF-OH) |  | 220
CC[C@H](C)[C@H](NC(=O)[C@@H](NC(=O)[C@@H](N)CCCCN)[C@@H](C)O)C(=O)N[C@H](C(=O)N1CCC[C@H]1C(=O)N[C@@H](C)C(=O)N[C@H](C(=O)N[C@@H](CC(C)C)C(=O)N1CCC[C@H]1C(=O)N[C@@H](CCC(N)=O)C(=O)N[C@@H](CC(C)C)C(=O)N[C@H](C(=O)N1CCC[C@H]1C(=O)NCC(=O)NCC(=O)NCC(=O)NCC(=O)NCC(=O)N[C@@H](CCCNC(=N)N)C(=O)N[C@@H](C)C(=O)N[C@@H](Cc1ccc(O)cc1)C(=O)N[C@@H](CCCNC(=N)N)C(=O)N[C@@H](CCC(N)=O)C(=O)N[C@@H](CO)C(=O)N[C@@H](COP(=O)(O)O)C(=O)N[C@@H](C)C(=O)N[C@@H](CC(N)=O)C(=O)N[C@@H](CC(C)C)C(=O)N[C@@H](CC(C)C)C(=O)N[C@@H](CS)C(=O)N[C@@H](Cc1ccccc1)C(=O)O)[C@@H](C)O)[C@@H](C)OP(=O)(O)O)C(C)C [GR_S612A] (H-KTIVPA[pT]LPQLTPGGGGGRAYRQS[pS]ANLLCF-OH) | 31.6 | 
CC[C@H](C)[C@H](NC(=O)[C@@H](NC(=O)[C@@H](N)CCCCN)[C@@H](C)O)C(=O)N[C@H](C(=O)N1CCC[C@H]1C(=O)N[C@@H](C)C(=O)N[C@H](C(=O)N[C@@H](CC(C)C)C(=O)N1CCC[C@H]1C(=O)N[C@@H](CCC(N)=O)C(=O)N[C@@H](CC(C)C)C(=O)N[C@H](C(=O)N1CCC[C@H]1C(=O)NCC(=O)NCC(=O)NCC(=O)NCC(=O)NCC(=O)N[C@@H](CCCNC(=N)N)C(=O)N[C@@H](CO)C(=O)N[C@@H](Cc1ccc(O)cc1)C(=O)N[C@@H](CCCNC(=N)N)C(=O)N[C@@H](CCC(N)=O)C(=O)N[C@@H](C)C(=O)N[C@@H](COP(=O)(O)O)C(=O)N[C@@H](C)C(=O)N[C@@H](CC(N)=O)C(=O)N[C@@H](CC(C)C)C(=O)N[C@@H](CC(C)C)C(=O)N[C@@H](CS)C(=O)N[C@@H](Cc1ccccc1)C(=O)O)[C@@H](C)O)[C@@H](C)OP(=O)(O)O)C(C)C [GR_S616A] (H-KTIVPA[pT]LPQLTPGGGGGRSYRQA[pS]ANLLCF-OH) | 63.1 | 
